What all share (experiment): DTP human tumour cell line panel, 48 h
In assay [1] the test system is ACHN.
In assay [2] the test system is CAKI-1.
The test system of assay [3] is HCT-116.
Assay [4] deals with HCT-15.
The subject of assay [5] is IGROV-1.
Assay [6] deals with KM12.
Assay [7] has as its system LOX IMVI.
Assay [8] concerns MDA-N.
For assay [9], the system named is MOLT-4.
Assay [10] relates to NCI-H23.
For assay [11], the system named is OVCAR-8.
The test system of assay [12] is RXF 393.
The subject of assay [13] is SF-268.
Assay [14] relates to SK-MEL-28.
The test system of assay [15] is SK-MEL-5.
Assay [16] concerns SNB-19.
Assay [17] concerns SNB-75.
Assay [18] has as its system SW-620.
Assay [19] relates to T47D.
In assay [20] the test system is UO-31.

Here are results for 3 molecules from ChEMBL document CHEMBL1201862, “PubChem BioAssay data set” (2004).

Each structure is given as a SMILES string.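 Values below derive from 48-hour exposures of cells grown in 96-well plates, with endpoints linearly interpolated between the two concentrations bracketing the appropriate inhibition level. GI50 is the concentration that inhibits growth by half.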 Active and inactive are the calls of the source. Cut-off read from the data, not from the text of the source: active = GI50 up to about 1.1 µM and inactive = higher. Where a SMILES comes first, the peptide text is derived from it. The star is where a group is joined. Cbz = O=C(OCc1ccccc1)* Bounds are passed on as bounds.

As for `COC(=O)c1cc(C#N)[nH]c1-c1ccc(Br)s1`, the GI50 (as a rule, the concentration giving 50% growth inhibition) is 13.7 µM (inactive) in assay [1]; 19.2 µM (inactive) in assay [2]; 13.5 µM (inactive) in assay [3]; 13.7 µM in assay [4]; 7.21 µM (inactive) in [5]; 16.7 µM (inactive) in [6]. The GI50 was 9.14 µM (inactive) in [7]; 13.7 µM (inactive) in assay [8]; 12.3 µM (inactive) in assay [9]; 5.08 µM (inactive) in [10]; 12.8 µM (inactive) in assay [11]; 4.3 µM (inactive) in [12]. The GI50 in assay [13] is 10.1 µM (inactive); in [14], 11.9 µM (inactive); in assay [15], 4.11 µM (inactive); in assay [16] it was 7.74 µM (inactive); in assay [17], 8.85 µM (inactive); in [18], 15.9 µM (inactive). In addition, the GI50 was 1.17 µM (inactive) in [19] and 5.7 µM (inactive) in assay [20].
Turning to `COC(=O)C(CC(C)C)NC(=O)C(CCCNC(=N)N)NC(=O)OCc1ccccc1` (stereo not drawn) (Cbz-Arg-Leu-OMe; configuration not given here), the GI50 in [1] is > 100 µM (inactive); in [2] it was > 100 µM (inactive); in assay [3], > 100 µM (inactive); in assay [4] it was above 100 µM; in assay [5] it was > 100 µM (inactive); in assay [6] it was > 100 µM (inactive). For the same molecule, the GI50 in assay [7], in [8], in assay [9], in assay [10], in [11] and in assay [12] was > 100 µM (inactive) in each case. The GI50 was > 100 µM (inactive) in [13]; > 100 µM (inactive) in [14]; > 100 µM (inactive) in assay [15]; > 100 µM (inactive) in assay [16]; 72.6 µM (inactive) in assay [17]; > 100 µM (inactive) in assay [18]. Besides, the GI50 in assay [19] and in [20] was > 100 µM (inactive) in each case.
For the molecule `O=C(Nc1cccc(C(F)(F)F)c1)c1cc(Br)cc(Br)c1O` [FLUOROSALAN], the GI50 was 3.06 µM (inactive) in assay [1]; 2.3 µM (inactive) in assay [2]; 2.32 µM (inactive) in assay [3]; 4.5 µM in assay [4]; 4.28 µM (inactive) in assay [5]; 3.28 µM (inactive) in assay [6]. The GI50 in assay [7] was 2.06 µM (inactive); in assay [8] it was 3.69 µM (inactive); in assay [9] it was 3.15 µM (inactive); in assay [10], 2.22 µM (inactive); in assay [11] it was 3.09 µM (inactive); in assay [12] it was 2.71 µM (inactive). Besides, the GI50 is 4.25 µM (inactive) in assay [13]; 3.38 µM (inactive) in [14]; 1.65 µM (inactive) in assay [15]; 2.77 µM (inactive) in assay [16]; 3.35 µM (inactive) in assay [17]; 3.9 µM (inactive) in [18]. The GI50 in assay [19] is 3.24 µM (inactive); in assay [20] it was 2.35 µM (inactive).
